Laboratory results as given in ChEMBL document CHEMBL1143455 (Bioorg Med Chem Lett, 2005).

Legend:
[1] = molecular target: T1, Prostaglandin G/H synthase 2 (Mus musculus, UniProt Q05769); assay: Tested for prostaglandin E2 production as a function of COX-2 inhibition using endotoxin-treated murine RAW 264.7 macrophages; type: functional
T1 sequence (Q05769 whole entry): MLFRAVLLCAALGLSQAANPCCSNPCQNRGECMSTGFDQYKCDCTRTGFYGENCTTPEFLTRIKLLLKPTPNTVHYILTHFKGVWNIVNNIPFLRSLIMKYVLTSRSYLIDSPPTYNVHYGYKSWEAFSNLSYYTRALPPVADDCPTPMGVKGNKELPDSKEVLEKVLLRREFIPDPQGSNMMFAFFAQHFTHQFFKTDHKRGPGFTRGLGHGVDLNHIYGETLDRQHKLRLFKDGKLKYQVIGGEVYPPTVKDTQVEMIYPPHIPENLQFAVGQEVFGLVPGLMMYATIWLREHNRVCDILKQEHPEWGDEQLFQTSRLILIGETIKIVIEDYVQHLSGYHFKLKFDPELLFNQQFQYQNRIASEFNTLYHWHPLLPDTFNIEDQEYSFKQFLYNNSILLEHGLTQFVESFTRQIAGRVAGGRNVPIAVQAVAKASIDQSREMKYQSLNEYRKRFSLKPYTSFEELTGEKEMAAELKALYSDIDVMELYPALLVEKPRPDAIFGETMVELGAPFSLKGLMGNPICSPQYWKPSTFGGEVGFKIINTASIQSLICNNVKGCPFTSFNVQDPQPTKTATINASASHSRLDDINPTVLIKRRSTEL

[2] = molecular target: T2, Prostaglandin G/H synthase 2 (Homo sapiens, UniProt P35354)
T2 sequence (P35354 whole entry): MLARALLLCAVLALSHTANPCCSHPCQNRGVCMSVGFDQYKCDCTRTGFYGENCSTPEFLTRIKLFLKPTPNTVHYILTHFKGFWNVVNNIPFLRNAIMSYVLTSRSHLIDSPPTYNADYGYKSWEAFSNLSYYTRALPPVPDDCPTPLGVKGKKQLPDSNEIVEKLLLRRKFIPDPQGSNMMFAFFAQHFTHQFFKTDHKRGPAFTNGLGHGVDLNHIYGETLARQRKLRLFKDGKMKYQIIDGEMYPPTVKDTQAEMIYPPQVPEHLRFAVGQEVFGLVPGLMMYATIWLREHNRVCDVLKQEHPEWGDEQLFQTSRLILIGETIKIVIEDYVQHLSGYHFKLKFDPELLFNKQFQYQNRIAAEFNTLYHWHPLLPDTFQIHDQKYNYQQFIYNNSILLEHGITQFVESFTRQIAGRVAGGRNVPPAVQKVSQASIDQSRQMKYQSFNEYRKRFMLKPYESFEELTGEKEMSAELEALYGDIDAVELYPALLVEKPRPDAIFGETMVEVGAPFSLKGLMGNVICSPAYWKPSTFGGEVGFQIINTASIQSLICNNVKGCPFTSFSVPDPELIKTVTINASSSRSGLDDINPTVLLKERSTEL
Description: Inhibitory activity against human recombinant cyclooxygenase 2

IC50 [2] [nM] | SMILES | IC50 [1] [nM]
 | Cc1onc(-c2ccc(F)cc2)c1-c1ccc(S(N)(=O)=O)cc1 | 2
 | NS(=O)(=O)c1ccc(-c2c(-c3ccccc3)noc2CF)cc1 | 2
 | Cc1onc(-c2ccccc2)c1-c1ccc(S(N)(=O)=O)c(F)c1 | 2
8 | NS(=O)(=O)c1ccc(-c2c(-c3ccccc3)noc2CCF)cc1 | 2
